Source: publication PMC12828148, “Engineered cyclic peptide targeting ITGA5 disrupts tumor–stroma interaction to overcome desmoplasia and resistance in pancreatic ductal adenocarcinoma” (Acta Pharmaceutica Sinica. B, 2025)
Ends that are not written are not given here.

Columns and labels:
[1] = system: PANC-1 + PSC and MIA PaCa-2 + PSC co-injection xenograft tumors; conditions: PANC-1 + PSC and MIA PaCa-2 + PSC co-injection xenografts, i.p. treatment, n = 4 per group per tumor type
Method: Six-week-old male CB17 SCID mice (Janvier Labs, Le Genest-Saint-Isle, France) were subcutaneously injected with a 2:1 mixture of 4 × 10^6 human PSCs and 2 × 10^6 PANC-1 or MIA PaCa-2 cells. Tumor growth was assessed twice a week. Tumor-bearing mice (±100 mm^3) were treated with phosphate buffered saline (PBS), cyAV3.3, gemcitabine, or combination of gemcitabine and cyAV3.3 intraperitoneally (i.p). Animals were euthanized, tumors and other organs were harvested and embedded in Cryomatrix (Thermo Scientific) before being snap frozen in cold 2-methyl butane (Thermo Scientific) and stored at −80 °C until analyses. […]
Immunohistochemical staining of mouse tumors
Tumors were cut into 7 μm thick sections and mounted on glass slides using Cryotome FSE (Thermo Scientific), dried, and fixed in acetone for 15 min. Tumor sections were rehydrated in PBS for 10 min then incubated with primary antibody diluted in PBS for 1 hour at RT. Antibodies […]
Next, slides were washed 3 times with PBS before incubation with secondary fluorescence-labeled antibody diluted in PBS. After 30 min of incubation, slides were washed with PBS and shielded with a DAPI -containing mounting medium. Images were made using a Hamamatsu NanoZoomer Digital slide scanner 2.0HT (Hamamatsu Photonics, New Jersey, […]

[2] = system: KPC (LSL-Kras^G12D/+; LSL-Trp53^R172H/+; Pdx1-Cre) PDAC tumors; test: Efficacy in genetically engineered KPC mouse PDAC model; type: in vivo, mice; conditions: isolated tumors, n = 6
Method: LSL-Kras^G12D/+; LSL-Trp53^R172H/+; Pdx1-Cre (KPC) mice were bred and maintained, on a mixed background, at the CRUK Scotland Institute. Mice were palpated until an abdominal tumor was detected (between 12 and 28 weeks of age) and were then imaged under anesthesia by 3D ultrasound imaging using the VisualSonics Vevo 3100 system with the MX550D transducer (FujiFilm). Following confirmation of PDAC of 3–6 mm, mice of both sexes were enrolled on treatment with cyAV3.3 25 mg/kg i.p. b.i.w. and gemcitabine (100 mg/kg i.p. b.i.w., n = 6). No mice were excluded from the study. Mice treated with gemcitabine alone were used as control group (n = 6). Follow-up imaging to monitor tumor volume was performed weekly until endpoint was reached (moderate symptoms: abdominal distension, loss of body conditioning, jaundice, hunching, or reduced movement). Upon post-mortem, gross pathology was examined and PDAC and organs harvested and fixed in 10% neutral buffered formalin prior to paraffin embedding and sectioning for histological and IHC analysis. Kaplan–Meier and Log-Rank analysis was used for statistical assessment of survival. Analysis of ultrasound images was performed by researchers blinded to treatment arm using VisualSonics VevoLab software (version 3.1.1). In 3D mode, stacked images of the tumor were imported, and tumor border annotated, allowing a 3D volume analysis.

[3] = system: PANC-1 homospheroids / PANC-1 + PSC heterospheroids; test: 3D spheroid growth and ATP viability, PANC-1 model; type: cell-based; conditions: PANC-1 homo- and PANC-1 + PSC hetero-spheroids, treated Days 3 and 6, size Days 3, 6, 9, n = 20
Method: Homo-spheroids containing hPSCs, PANC-1, or MIA PaCa-2, and hetero-spheroids containing 1:1 combination of hPSCs and PANC-1/MIA PaCa-2 were generated in a 96-well round bottom plates precoated with 1% Pluronic F-127 (Sigma–Aldrich). The self-assembled spheroids were exposed to cyAV3.3, gemcitabine, or both after 3 days and 6 days. Before each treatment, images of spheroids were made using inverted microscope. The diameters of spheroids were measured digitally using ImageJ software. After 9 days, spheroids were moved from the wells to a fresh 96-well plate. CellTiter-Glo 3D reagent (Promega, WI, USA) was added to each well and the luminescence signal was measured after 30 min using Varioskan LUX bioluminescent reader (Thermo Scientific) to assess the viability.

hPSCs = test: Cell viability, Alamar blue assay; type: cell-based, human
Method: We investigated the inhibitory effect of both cyclic and linear peptides on PSC activation and signaling. To achieve this, PSCs were seeded and treated with TGF-β and peptides for 48 h (protein expression) or 24 h (gene expression). We also tested the effect of the peptide on the cell viability using Alamar blue assay and found no toxicity (Supporting Information Fig. S3A). […] To quantitate that, we performed Western blot analysis and confirmed the observed effect via immunostaining (Fig. 2B and C; Fig. S3B). The details of the antibodies used can be found in Supporting Information Table S2. […] After obtaining these effects, we focused on cyAV3.3 and examined its inhibitory effects on TGF-β1-stimulated PSCs using qPCR and an RT[2] profiler PCR array for ECM and adhesion receptors (Fig. 2D). […] The details of primers for all genes can be found in Supporting Information Table S3. […] In contrast, cyAV3.3 induced the gene expression of ECM-degrading proteins such as MMP10 and ADAMTS-13 (Supporting Information Fig. S4).

[4] = system: hPSC activated with TGF-β; test: Inhibition of TGF-β-induced PSC activation (immunocytochemical staining, Western blot); type: cell-based, human; conditions: 5 ng/mL TGF-β, 48 h, peptides at 20 and 50 μmol/L, immunostaining and Western blot
Method: secondary peroxidase labeled antibody was added and incubated for 1 h at RT. The HRP signal was developed using standard chemiluminescence kit and the signal was measured.
To evaluate the stability, 20 µmol/L peptide was incubated in 50% human plasma at biological temperature 37 °C for 1, 2, and 24 h. After incubation, plasma was precipitated by adding equal volume of 4% trichloroacetic acid (TCA) and rested on ice for 10 min. As control (or 0h), precipitation was performed immediately after mixing the peptide and plasma. Supernatant was collected after centrifugation at 13,300 × g and assessed using reversed phase high performance liquid chromatography (HPLC) with 5%, 95%, and 99.9% acetonitrile in de-gassed water with 0.1% trifluoroacetic acid as eluents. The remaining peptide was analyzed at a wavelength 280 nm.
Quantitative real-time PCR
To examine the effect of peptides on the gene expression of hPSC activation markers, cells were seeded into a 12 well plate at a seeding density of 50,000 cells/well. After overnight incubation, cells were starved for 24 h, then treated with human recombinant 5 ng/mL TGF-β (Peprotech, Hamburg, Germany) and […] peptide. After 24 h of the incubation, cells were lysed and total RNA was isolated using GenElute™ Mammalian Total RNA Miniprep Kit (Sigma–Aldrich) and the RNA concentration was measured using a NanoDrop® ND-1000 Spectrophotometer (Thermo Scientific, Waltham, USA). cDNA was synthesized with iScript™ cDNA Synthesis Kit (BioRad, Veenendaal, The Netherlands), and 10 ng cDNA was used for each PCR reaction. […] Quantitative real time PCR was performed with 2× SensiMix SYBR and Fluoroscein Kit (Bioline GmbH, Luckenwalde, Germany) using a BioRad CFX384 Real-Time PCR detection system (BioRad). […]
To evaluate the effect of peptides on the protein expression of hPSC activation markers, hPSCs were seeded into a 12 well plate at seeding density 50,000 cells/well. […] Proteins were detected with […]
medium. […] Images were analyzed using […]
secondary fluorescence-labeled antibody diluted in PBS. […]

TGF-β treated PSCs = test: Cell adhesion competition study (PSC attachment to FN-coated plate, crystal violet); type: cell-based, human; conditions: 50 μmol/L peptide, 30 min pre-incubation 37 °C, 1 h attachment, crystal violet absorbance 600 nm, n = 3
Method: To analyze the interaction of PSC and FN, a 96 suspension well plate was coated with 100 μL FN (Advanced Biomatrix, Carlsbad, CA, USA) at 1 μg/mL by overnight incubation at 4 °C. Next, the plate was washed with DPBS (Lonza) and blocked with 5% bovine serum albumin (BSA) in DPBS for at least 1 h at RT. In the meantime, a cell suspension of 200,000 cells/mL of TGF-β treated PSCs in DPBS with 2 mmol/L Ca^2+ and 2 mmol/L Mg^2+ was treated with 50 μmol/L AV3.3 or cyAV3.3 and incubated for 30 min at 37 °C. After washing the plate with DPBS, 100 μL cell suspension was added to each well and then set to rest for 1 h at RT. The plate was then washed with DPBS to remove unattached cells. […] Next, cells were stained with 0.1% (w/v) crystal violet (Sigma) in 25% methanol at RT. After 20 min, cells were washed with water and lysed with 0.5% (w/v) SDS. The degree of cell attachment was measured by the absorbance of the crystal violet at 600 nm using Tecan Infinite M200 plate reader (Tecan, Mannendorf, Switzerland). In other plate, cells were washed with DPBS after fixation and then stained with DAPI. Images were developed using EVOS fluorescence microscope (Thermo Scientific).

Molecule: Nc1ccn([C@@H]2O[C@H](CO)[C@@H](O)C2(F)F)c(=O)n1 [gemcitabine]
- reduction of tumor size / tumor growth [1]: 60%
- collagen deposition (Sirius red) in KPC tumors [2]: significantly induced collagen deposition
- spheroid growth [3]: reduced the growth of both homo- and hetero-spheroids

Molecule: RYYRATY [AV3.3]
- effect on cell viability (hPSCs): no toxicity
- inhibition of PSC activation by TGF-β1 (expression of α-SMA and collagen-1) [4]: inhibited the activation of PSCs

Molecule: cyclo(GYYTRRAYK) [scr, scrambled cyclic peptide control, reference compound]
- blocking of the binding of PSC to FN (TGF-β treated PSCs): did not show any blocking
